This is an account of results in patent US10336762B2 (priority 2017, dated 2019).

For one assay, the target named is IRAK4 enzyme (Homo sapiens (Human), UniProt Q9NWZ3). The assay can be described thus: biochemical. The class given is biochemical. The settings on record: IRAK4 enzyme, TR-FRET, 500 μM ATP.
The subject of another assay is TNFα. The assay can be described thus: cells. The settings on record: Homo sapiens, Monocyte, LPS-stimulated human monocytes, TNFα content; read-out: EC50 TNF. The class given is cell-based, human.

Sequence of IRAK4 enzyme (Q9NWZ3 whole entry): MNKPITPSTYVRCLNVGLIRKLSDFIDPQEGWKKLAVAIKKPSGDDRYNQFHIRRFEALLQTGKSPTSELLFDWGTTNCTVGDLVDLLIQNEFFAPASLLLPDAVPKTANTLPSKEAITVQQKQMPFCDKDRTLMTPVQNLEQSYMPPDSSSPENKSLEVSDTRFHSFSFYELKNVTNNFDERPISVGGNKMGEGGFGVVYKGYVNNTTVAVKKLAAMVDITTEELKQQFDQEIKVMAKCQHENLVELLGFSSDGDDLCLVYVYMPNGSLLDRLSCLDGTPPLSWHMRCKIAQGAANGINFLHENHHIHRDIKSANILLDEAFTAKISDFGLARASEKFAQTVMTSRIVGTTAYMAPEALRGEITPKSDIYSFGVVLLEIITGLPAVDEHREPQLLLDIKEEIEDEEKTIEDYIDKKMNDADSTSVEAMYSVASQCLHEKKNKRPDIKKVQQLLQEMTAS

`CC(C)(O)[C@H](F)CNC(=O)c1cnc(-c2ccc3cc(C#N)cnn23)cc1Nc1cccc(-c2cnc[nH]2)c1` [Example 219, (R)-4-((3-(1H-imidazol-5-yl)phenyl)amino)-6-(3-cyanopyrrolo[1,2-b]pyridazin-7-yl)-N-(2-fluoro-3-hydroxy-3-methylbutyl)nicotinamide] returned an IC50 on IRAK4 enzyme of 1 nM. For the same compound, the EC50 in the assay with TNFα amounted to 209 nM.
For `CC(=O)NCc1cccc(Nc2cc(-c3ccc4cc(C#N)cnn34)ncc2C(=O)NC[C@@H](F)C(C)(C)O)c1` [Example 220, (R)-4-((3-(acetamidomethyl)phenyl)amino)-6-(3-cyanopyrrolo[1,2-b]pyridazin-7-yl)-N-(2-fluoro-3-hydroxy-3-methylbutyl)nicotinamide], in that order: 1 nM and 123 nM.
For `CC(C)(O)[C@H](F)CNC(=O)c1cnc(-c2ccc3cc(C#N)cnn23)cc1Nc1cccc(-c2ncc[nH]2)c1` [Example 221, (R)-4-((3-(1H-imidazol-2-yl)phenyl)amino)-6-(3-cyanopyrrolo[1,2-b]pyridazin-7-yl)-N-(2-fluoro-3-hydroxy-3-methylbutyl)nicotinamide], in that order: below 1 nM and 98 nM.
For `CC(C)(O)[C@H](F)CNC(=O)c1cnc(-c2ccc3cc(C#N)cnn23)cc1Nc1cncc(C2CC2)c1` [Example 222, (R)-6-(3-cyanopyrrolo[1,2-b]pyridazin-7-yl)-4-((5-cyclopropylpyridin-3-yl)amino)-N-(2-fluoro-3-hydroxy-3-methylbutyl)nicotinamide], in that order: 1 nM and 151 nM.
Regarding `CC(C)(O)[C@H](F)CNC(=O)c1cnc(-c2ccc3cc(C#N)cnn23)cc1Nc1cnn([C@H]2CCNC2)c1` [Example 223, 6-(3-cyanopyrrolo[1,2-b]pyridazin-7-yl)-N-((R)-2-fluoro-3-hydroxy-3-methylbutyl)-4-((1-((S)-pyrrolidin-3-yl)-1H-pyrazol-4-yl)amino) nicotinamide], the IC50 at IRAK4 enzyme was below 1 nM. For the same compound, the EC50 in the assay with TNFα stood at 13 nM.
With `COC(=O)N1CC[C@H](n2cc(Nc3cc(-c4ccc5cc(C#N)cnn45)ncc3C(=O)NC[C@@H](F)C(C)(C)O)cn2)C1` [Example 224, (S)-methyl 3-(4-((2-(3-cyanopyrrolo[1,2-b]pyridazin-7-yl)-5-(((R)-2-fluoro-3-hydroxy-3-methylbutyl)carbamoyl)pyridin-4-yl)amino)-1H-pyrazol-1-yl) pyrrolidine-1-carboxylate], at IRAK4 enzyme, half-maximal inhibition (IC50) was put at 1 nM. Also, the EC50 in the assay on TNFα is 75 nM.
In turn, `COC(=O)NCc1ccc(Nc2cc(-c3ccc4cc(C#N)cnn34)ncc2C(=O)NC[C@@H](F)C(C)(C)O)cc1` [Example 225, (R)-methyl (4-((2-(3-cyano-pyrrolo[1,2-b]pyridazin-7-yl)-5-((2-fluoro-3-hydroxy-3-methylbutyl)carbamoyl)pyridin-4-yl)amino)benzyl)carbamate] yielded an IC50 on IRAK4 enzyme below 1 nM. For the same compound, in the assay with TNFα, the EC50 was determined as 6 nM.
As to `CC(C)(O)[C@H](F)CNC(=O)c1cnc(-c2ccc3cc(C#N)cnn23)cc1Nc1cncc(C(F)F)c1` [Example 226, (R)-6-(3-cyanopyrrolo[1,2-b]pyridazin-7-yl)-4-((5-(difluoromethyl)pyridin-3-yl)amino)-N-(2-fluoro-3-hydroxy-3-methylbutyl)nicotinamide], the IC50 at IRAK4 enzyme is below 1 nM. Also, in the assay on TNFα, the EC50 is 75 nM.
The compound `CC(C)(O)[C@H](F)CNC(=O)c1cnc(-c2ccc3cc(C#N)cnn23)cc1Nc1ccc(C(F)F)nc1` [Example 227, (R)-6-(3-cyanopyrrolo[1,2-b]pyridazin-7-yl)-4-((6-(difluoromethyl)pyridin-3-yl)amino)-N-(2-fluoro-3-hydroxy-3-methylbutyl)nicotinamide] had an IC50 against IRAK4 enzyme below 1 nM. Moreover, the EC50 in the assay on TNFα stood at 31 nM.
